# Measured values: patent publication US9302999B2, “Substituted triazoles as herbicides” (E. I. DU PONT DE NEMOURS AND COMPANY, priority 2012, dated 2016)
# Legend:
# Assay type in all cases: in vivo
# [1] = test system: johnsongrass (Sorghum halepense); assay: Test E pre-/postemergence: johnsongrass; settings: Preemergence, scale 0 to 100
# In short: (§1)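 Preemergence: seeds sown in silt loam soil and sprayed with compound in non-phytotoxic solvent containing surfactant. Postemergence: plants grown in peat/vermiculite medium, treated at 2–18 cm (1- to 4-leaf stage). Greenhouse 14–21 days; visual rating vs untreated controls, 0 (no effect) to 100 (complete control).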
# [2] = test system: corn (Zea mays); assay: Test E pre-/postemergence: corn; settings: scale 0 to 100
# From the text: (§2) Seeds of plant species selected from corn (Zea mays), soybean (Glycine max), velvetleaf (Abutilon theophrasti), lambsquarters (Chenopodium album), poinsettia, wild (wild poinsettia, Euphorbia heterophylla), pigweed, palmer (palmer pigweed, Amaranthus palmeri), waterhemp (common waterhemp, Amaranthus rudis), smartweed (ladysthumb smartweed, Polygonum persicaria), surinam grass (Brachiaria decumbens), crabgrass, large (large crabgrass, Digitaria sanguinalis), crabgrass, Brazil (Brazilian crabgrass, Digitaria horizontalis), panicum, fall (fall panicum, Panicum dichotomiflorum), foxtail, giant (giant foxtail, Setaria faberii), foxtail, green (green foxtail, Setaria viridis), goosegrass (Eleusine indica), johnsongrass (Sorghum halepense), ragweed (common ragweed, Ambrosia elation), barnyardgrass (Echinochloa crus-galli), sandbur (southern sandbur, Cenchrus echinatus), arrowleaf sida (Sida rhombifolia), ryegrass, Italian (Italian ryegrass, Lolium multiflorum), dayflower, (VA) (Virginia dayflower, Commelina virginica), field bindweed (Convolvulus arvensis), cocklebur (common cocklebur, Xanthium strumarium), morningglory (Ipomoea coccinea), nightshade (eastern black nightshade, Solanum ptycanthum), kochia (Kochia scoparia), nutsedge, yellow (yellow nutsedge, Cyperus esculentus) and beggarticks (hairy beggarticks, Bidens pilosa) were planted into a silt loam soil and treated preemergence with test chemicals formulated in a non-phytotoxic solvent mixture which included a surfactant. At the same time, plants selected from these crop and weed species were planted in pots containing a growing medium comprising spaghnum peat moss, vermiculite, wetting agent and starter nutrients and treated with postemergence applications of some of the test chemicals formulated in the same manner. Plants ranged in height from 2 to 18 cm for postemergence treatments (1- to 4-leaf stage).
# (§3) Treated plants and controls were maintained in a greenhouse for 14 to 21 days, after which time all species were compared to controls and visually evaluated. Plant response ratings, summarized in Table E, are based on a scale of 0 to 100 where 0 is no effect and 100 is complete control. A dash (-) response means no test result.
# [3] = test system: pigweed, palmer (palmer pigweed, Amaranthus palmeri); assay: Test E pre-/postemergence: pigweed, palmer; settings: scale 0 to 100
# In short: as §1
# [4] = test system: beggarticks (hairy beggarticks, Bidens pilosa); assay: Test E pre-/postemergence: beggarticks; settings: scale 0 to 100
# In short: as §1
# [5] = test system: soybean (Glycine max); assay: Test E pre-/postemergence: soybean; settings: scale 0 to 100
# From the text: as §2, §3
# [6] = test system: cocklebur (common cocklebur, Xanthium strumarium); assay: Test E pre-/postemergence: cocklebur; settings: Preemergence, scale 0 to 100
# From the text: as §2, §3
# [7] = test system: nutsedge, yellow (yellow nutsedge, Cyperus esculentus); assay: Test E pre-/postemergence: nutsedge, yellow; settings: Preemergence, scale 0 to 100
# In short: as §1
# [8] = test system: dayflower, (VA) (Virginia dayflower, Commelina virginica); assay: Test E pre-/postemergence: dayflower, (VA); settings: scale 0 to 100
# From the text: as §2, §3
# [9] = test system: kochia (Kochia scoparia); assay: Test E pre-/postemergence: kochia; settings: Preemergence, scale 0 to 100
# From the text: as §2, §3
# [10] = test system: sandbur (southern sandbur, Cenchrus echinatus); assay: Test E pre-/postemergence: sandbur; settings: scale 0 to 100
# From the text: as §2, §3
# [11] = test system: crabgrass, large (large crabgrass, Digitaria sanguinalis); assay: Test E pre-/postemergence: crabgrass, large; settings: Preemergence, scale 0 to 100
# In short: as §1
# [12] = test system: field bindweed (Convolvulus arvensis); assay: Test E pre-/postemergence: field bindweed; settings: scale 0 to 100
# In short: as §1
# [13] = test system: ryegrass, Italian (Italian ryegrass, Lolium multiflorum); assay: Test E pre-/postemergence: ryegrass, Italian; settings: scale 0 to 100
# In short: as §1
smiles,measurement,setting,value
Cc1nn(-c2ccc(C(F)(F)F)cc2)nc1Oc1ccnc(C(F)(F)F)c1 [Compound 120],Plant response rating: Johnsongrass,[1]; 16 g ai/ha,15
same,Plant response rating: Johnsongrass,[1]; 31 g ai/ha,15
same,Plant response rating: Johnsongrass,[1]; 62 g ai/ha,15
same,Plant response rating: Johnsongrass,[1]; 125 g ai/ha,35
same,Plant response rating: Johnsongrass,[1]; 250 g ai/ha,65
same,Plant response rating: Corn,"[2]; Postemergence, 8 g ai/ha",10
same,Plant response rating: Corn,"[2]; Postemergence, 16 g ai/ha",10
same,Plant response rating: Corn,"[2]; Postemergence, 31 g ai/ha",10
same,Plant response rating: Corn,"[2]; Postemergence, 62 g ai/ha",20
same,Plant response rating: Corn,"[2]; Postemergence, 125 g ai/ha",20
same,Plant response rating: Corn,"[2]; Preemergence, 16 g ai/ha",0
same,Plant response rating: Corn,"[2]; Preemergence, 62 g ai/ha",5
same,Plant response rating: Corn,"[2]; Preemergence, 125 g ai/ha",10
same,Plant response rating: Corn,"[2]; Preemergence, 250 g ai/ha",10
same,"Plant response rating: Pigweed, Palmer","[3]; Postemergence, 8 g ai/ha",90
same,"Plant response rating: Pigweed, Palmer","[3]; Postemergence, 16 g ai/ha",90
same,"Plant response rating: Pigweed, Palmer","[3]; Postemergence, 31 g ai/ha",90
same,"Plant response rating: Pigweed, Palmer","[3]; Postemergence, 62 g ai/ha",95
same,"Plant response rating: Pigweed, Palmer","[3]; Postemergence, 125 g ai/ha",100
same,"Plant response rating: Pigweed, Palmer","[3]; Preemergence, 16 g ai/ha",65
same,"Plant response rating: Pigweed, Palmer","[3]; Preemergence, 31 g ai/ha",100
same,"Plant response rating: Pigweed, Palmer","[3]; Preemergence, 62 g ai/ha",100
same,"Plant response rating: Pigweed, Palmer","[3]; Preemergence, 125 g ai/ha",100
same,"Plant response rating: Pigweed, Palmer","[3]; Preemergence, 250 g ai/ha",100
same,Plant response rating: Beggarticks,"[4]; Postemergence, 8 g ai/ha",10
same,Plant response rating: Beggarticks,"[4]; Postemergence, 16 g ai/ha",10
same,Plant response rating: Beggarticks,"[4]; Postemergence, 31 g ai/ha",20
same,Plant response rating: Beggarticks,"[4]; Postemergence, 62 g ai/ha",30
same,Plant response rating: Beggarticks,"[4]; Postemergence, 125 g ai/ha",35
same,Plant response rating: Beggarticks,"[4]; Preemergence, 16 g ai/ha",0
same,Plant response rating: Beggarticks,"[4]; Preemergence, 31 g ai/ha",0
same,Plant response rating: Beggarticks,"[4]; Preemergence, 125 g ai/ha",80
same,Plant response rating: Soybean,"[5]; Postemergence, 8 g ai/ha",15
same,Plant response rating: Soybean,"[5]; Postemergence, 16 g ai/ha",20
same,Plant response rating: Soybean,"[5]; Postemergence, 31 g ai/ha",30
same,Plant response rating: Soybean,"[5]; Postemergence, 62 g ai/ha",40
same,Plant response rating: Soybean,"[5]; Postemergence, 125 g ai/ha",50
same,Plant response rating: Soybean,"[5]; Preemergence, 16 g ai/ha",0
same,Plant response rating: Soybean,"[5]; Preemergence, 31 g ai/ha",25
same,Plant response rating: Soybean,"[5]; Preemergence, 62 g ai/ha",35
same,Plant response rating: Soybean,"[5]; Preemergence, 125 g ai/ha",35
same,Plant response rating: Soybean,"[5]; Preemergence, 250 g ai/ha",35
same,Plant response rating: Cocklebur,[6]; 16 g ai/ha,0
same,Plant response rating: Cocklebur,[6]; 31 g ai/ha,0
same,Plant response rating: Cocklebur,[6]; 62 g ai/ha,90
same,Plant response rating: Cocklebur,[6]; 125 g ai/ha,90
same,"Plant response rating: Nutsedge, Yellow",[7]; 16 g ai/ha,0
same,"Plant response rating: Nutsedge, Yellow",[7]; 31 g ai/ha,0
same,"Plant response rating: Nutsedge, Yellow",[7]; 62 g ai/ha,0
same,"Plant response rating: Nutsedge, Yellow",[7]; 125 g ai/ha,15
same,"Plant response rating: Nutsedge, Yellow",[7]; 250 g ai/ha,25
same,"Plant response rating: Dayflower, VA","[8]; Postemergence, 8 g ai/ha",10
same,"Plant response rating: Dayflower, VA","[8]; Postemergence, 16 g ai/ha",10
same,"Plant response rating: Dayflower, VA","[8]; Postemergence, 31 g ai/ha",10
same,"Plant response rating: Dayflower, VA","[8]; Postemergence, 62 g ai/ha",10
same,"Plant response rating: Dayflower, VA","[8]; Postemergence, 125 g ai/ha",15
same,"Plant response rating: Dayflower, VA","[8]; Preemergence, 16 g ai/ha",0
same,"Plant response rating: Dayflower, VA","[8]; Preemergence, 31 g ai/ha",0
same,"Plant response rating: Dayflower, VA","[8]; Preemergence, 62 g ai/ha",50
same,"Plant response rating: Dayflower, VA","[8]; Preemergence, 125 g ai/ha",50
same,"Plant response rating: Dayflower, VA","[8]; Preemergence, 250 g ai/ha",50
same,Plant response rating: Kochia,[9]; 16 g ai/ha,0
same,Plant response rating: Kochia,[9]; 31 g ai/ha,20
same,Plant response rating: Kochia,[9]; 62 g ai/ha,50
same,Plant response rating: Kochia,[9]; 125 g ai/ha,90
same,Plant response rating: Kochia,[9]; 250 g ai/ha,100
same,Plant response rating: Sandbur,"[10]; Postemergence, 8 g ai/ha",10
same,Plant response rating: Sandbur,"[10]; Postemergence, 16 g ai/ha",10
same,Plant response rating: Sandbur,"[10]; Postemergence, 31 g ai/ha",20
same,Plant response rating: Sandbur,"[10]; Postemergence, 62 g ai/ha",30
same,Plant response rating: Sandbur,"[10]; Postemergence, 125 g ai/ha",35
same,Plant response rating: Sandbur,"[10]; Preemergence, 16 g ai/ha",5
same,Plant response rating: Sandbur,"[10]; Preemergence, 31 g ai/ha",5
same,Plant response rating: Sandbur,"[10]; Preemergence, 62 g ai/ha",5
same,Plant response rating: Sandbur,"[10]; Preemergence, 125 g ai/ha",20
same,Plant response rating: Sandbur,"[10]; Preemergence, 250 g ai/ha",75
same,"Plant response rating: Crabgrass, Large",[11]; 16 g ai/ha,75
same,"Plant response rating: Crabgrass, Large",[11]; 31 g ai/ha,95
same,"Plant response rating: Crabgrass, Large",[11]; 62 g ai/ha,98
same,"Plant response rating: Crabgrass, Large",[11]; 125 g ai/ha,100
same,"Plant response rating: Crabgrass, Large",[11]; 250 g ai/ha,100
same,Plant response rating: Field Bindweed,"[12]; Postemergence, 16 g ai/ha",20
same,Plant response rating: Field Bindweed,"[12]; Postemergence, 31 g ai/ha",30
same,Plant response rating: Field Bindweed,"[12]; Postemergence, 62 g ai/ha",35
same,Plant response rating: Field Bindweed,"[12]; Postemergence, 125 g ai/ha",35
same,Plant response rating: Field Bindweed,"[12]; Preemergence, 16 g ai/ha",0
same,Plant response rating: Field Bindweed,"[12]; Preemergence, 31 g ai/ha",10
same,Plant response rating: Field Bindweed,"[12]; Preemergence, 62 g ai/ha",20
same,Plant response rating: Field Bindweed,"[12]; Preemergence, 125 g ai/ha",40
same,Plant response rating: Field Bindweed,"[12]; Preemergence, 250 g ai/ha",98
same,"Plant response rating: Ryegrass, Italian","[13]; Postemergence, 8 g ai/ha",0
same,"Plant response rating: Ryegrass, Italian","[13]; Postemergence, 16 g ai/ha",10
same,"Plant response rating: Ryegrass, Italian","[13]; Postemergence, 31 g ai/ha",15
same,"Plant response rating: Ryegrass, Italian","[13]; Postemergence, 62 g ai/ha",20
same,"Plant response rating: Ryegrass, Italian","[13]; Postemergence, 125 g ai/ha",35
same,"Plant response rating: Ryegrass, Italian","[13]; Preemergence, 16 g ai/ha",0
same,"Plant response rating: Ryegrass, Italian","[13]; Preemergence, 31 g ai/ha",35
same,"Plant response rating: Ryegrass, Italian","[13]; Preemergence, 62 g ai/ha",35
same,"Plant response rating: Ryegrass, Italian","[13]; Preemergence, 125 g ai/ha",90
same,"Plant response rating: Ryegrass, Italian","[13]; Preemergence, 250 g ai/ha",98
